We go through 23 compounds from patent US12030835B2, “Substituted amide compounds useful as farnesoid X receptor modulators” (BRISTOL-MYERS SQUIBB COMPANY, priority 2019, dated 2024).

For the assay, the target named is T1, human FXR (Homo sapiens, UniProt Q96RI1).
T1 construct: expressed in transfected cells
T1 sequence (Q96RI1 262-486 limits assumed): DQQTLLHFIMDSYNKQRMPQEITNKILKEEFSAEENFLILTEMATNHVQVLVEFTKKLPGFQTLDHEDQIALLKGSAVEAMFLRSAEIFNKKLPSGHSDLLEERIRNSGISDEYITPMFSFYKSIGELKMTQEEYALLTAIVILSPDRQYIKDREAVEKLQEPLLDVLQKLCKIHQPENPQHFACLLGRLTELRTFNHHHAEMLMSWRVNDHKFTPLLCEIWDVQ
Briefly: transient human FXR/Gal4-luciferase reporter assay. The assay is classed as cell-based. The following applies: Gal4-hFXR (ligand binding domain) fusion transiently transfected in HEK293 Gal4-luciferase reporter cells; overnight incubation; response as percentage of 8 μM GW-4064 control. As to the method: A Gal4-hFXR fusion construct reporter system was used as the primary assay to characterize compound activity. A construct including 5 copies of the Gal4 promoter response element upstream of a firefly luciferase reporter cDNA was stably expressed in HEK293 cells. This reporter cell line was maintained in Dulbecco's Modified Eagle's medium (DMEM; Gibco) supplemented with 1% penicillin-streptomycin (P/S) solution, 500 μg/ml Zeocin and 10% charcoal/dextran-treated fetal bovine serum (cs-FBS) at 37° C. in a humidified 5% CO2 atmosphere. Another plasmid was constructed in which the human cytomegalovirus promoter in the pcDNA3.1 vector directs the expression of the cDNA encoding a fusion protein comprised of the DNA binding domain from the Gal4 transcription factor fused to the ligand binding domain from human FXR.
The day prior to transfection, the reporter cells in culture are detached from the plate with trypsin and plated into a T75 flask at a sufficient density to achieve approximately 90% confluence the next morning. The transfection reagents are prepared by separately diluting 25 μg of the pcDNA3.1-Gal4-FXR plasmid into 1.87 mL of Opti-MEM (Thermo-Fisher), and 40 μL of Lipofectamine 2000 (Thermo-Fisher) into 1.87 mL of Opti-MEM, and then adding the diluted DNA solution into the diluted Lipofectamine 2000 solution and incubating at room temperature for 15-20 minutes. The mixture is further diluted with 10 ml of a solution comprised of DMEM, 10% cs-FBS, and 1% P/S immediately prior to transferring to the cells. The maintenance culture media is aspirated from the cells and the final transfection mixture is added before the cells are incubated overnight at 37° C. in a humidified 5% CO2 atmosphere. This protocol can be scaled up, and the transiently transfected cells can be cryopreserved in an assay-ready format.
For compound testing, 100 nL of the compounds (serial dilutions in DMSO) are dispensed with an Echo acoustic dispenser (Labcyte) into the wells of a Corning/Costar clear bottom 384-well white plate. The transfected cells are harvested, counted, and diluted such that 10-25,000 cells in 25 μL are plated into each well of the 384-well compound assay plate. The compound-treated cells are incubated overnight at 37° C. in a humidified 5% CO2 atmosphere. The next morning 25 μL of Steady-Glo (Promega) are added to each well of the plate, the mixture is incubated for 15 min. with shaking, and luminescence is measured on an Envision (Perkin Elmer) plate reader.
(In general: A reporter such as luciferase makes a cellular process visible.)
Broadly, the EC50 is the concentration needed to bring the measured effect to its halfway point. Lower therefore signals greater potency. For `COC(=O)/C=C/c1cccc(N(CC23CCC(c4nc(C)no4)(CC2)CC3)C(=O)C2CCOCC2)c1` [Example 23, Methyl (E)-3-(3-(N-((4-(3-methyl-1,2,4-oxadiazol-5-yl)bicyclo[2.2.2]octan-1-yl)methyl)tetrahydro-2H-pyran-4-carboxamido)phenyl)acrylate], the EC50 is 920 nM.

Compound `COC(=O)/C=C/c1cccc(N(CC23CCC(c4nc(C)no4)(CC2)CC3)C(=O)C2CCCCCC2)c1` [Example 24, methyl (E)-3-(3-(N-((4-(3-methyl-1,2,4-oxadiazol-5-yl)bicyclo[2.2.2]octan-1-yl)methyl)cycloheptanecarboxamido)phenyl) acrylate] came in with a 50% effective concentration (EC50) of 150 nM.

`COC(=O)/C=C/c1cccc(N(CC23CCC(c4nc(C)no4)(CC2)CC3)C(=O)C23CC(F)(C2)C3)c1` [Example 25, methyl (E)-3-(3-(3-fluoro-N-((4-(3-methyl-1,2,4-oxadiazol-5-yl)bicyclo[2.2.2]octan-1-yl)methyl)bicyclo[1.1.1]pentane-1-carboxamido)phenyl)acrylate] came in with an EC50 of 123 nM.

For `COC(=O)/C=C/c1cccc(N(CC23CCC(c4nc(C)no4)(CC2)CC3)C(=O)C2CC(F)(F)C2)c1` [Example 26, methyl (E)-3-(3-(3,3-difluoro-N-((4-(3-methyl-1,2,4-oxadiazol-5-yl)bicyclo[2.2.2]octan-1-yl)methyl)cyclobutane-1-carboxamido)phenyl)acrylate], a half-maximal effect (EC50) was put at 302 nM.

In turn, `Cc1noc(C23CCC(CN(C(=O)C4CCCCC4)c4cccc(/C=C/C(=O)N(C)C)c4)(CC2)CC3)n1` [Example 27, (E)-N-(3-(3-(dimethylamino)-3-oxoprop-1-en-1-yl)phenyl)-N-((4-(3-methyl-1,2,4-oxadiazol-5-yl)bicyclo[2.2.2]octan-1-yl)methyl)cyclohexanecarboxamide] yielded an EC50 of 4460 nM. This EC50 is about 15-fold higher than that of the compound before.

In turn, `COC(=O)/C=C/c1cccc(N(CC23CCC(c4ccc(C5CC5)cc4)(CC2)CC3)C(=O)C2CC2)c1` [Example 28, Methyl (E)-3-(3-(N-((4-(4-cyclopropylphenyl)bicyclo[2.2.2]octan-1-yl)methyl)cyclopropanecarboxamido)phenyl)acrylate] came in with an EC50 of 947 nM.

In the case of `COC(=O)/C=C/c1cccc(N(CC23CCC(c4ccc(C5CC5)cc4)(CC2)CC3)C(=O)C2CCCCC2)c1` [Example 29, Methyl (E)-3-(3-(N-((4-(4-cyclopropylphenyl)bicyclo[2.2.2]octan-1-yl)methyl)cyclohexanecarboxamido)phenyl)acrylate], the half-maximal effective concentration (EC50) is 161 nM.

The compound `COC(=O)C1=Cc2cccc(N(CC34CCC(c5ccc(C6CC6)cc5)(CC3)CC4)C(=O)C3CCCCC3)c2CC1` [Example 30, Methyl 5-(N-((4-(4-cyclopropylphenyl)bicyclo[2.2.2]octan-1-yl)methyl)cyclohexanecarboxamido)-3,4-dihydronaphthalene-2-carboxylate] gave an EC50 of 195 nM.

With `COC(=O)C1=Cc2cccc(N(CC34CCC(c5ccc(C6CC6)cc5)(CC3)CC4)C(=O)C3CC3)c2CC1` [Example 31, methyl 5-(N-((4-(4-cyclopropylphenyl)bicyclo[2.2.2]octan-1-yl)methyl)cyclopropanecarboxamido)-3,4-dihydronaphthalene-2-carboxylate], the EC50 is 796 nM.

In turn, `COC(=O)C1=Cc2cccc(N(CC34CCC(c5ccc(C6CC6)cc5)(CC3)CC4)C(=O)C(C)C)c2CC1` [Example 32, methyl 5-(N-((4-(4-cyclopropylphenyl)bicyclo[2.2.2]octan-1-yl)methyl)isobutyramido)-3,4-dihydronaphthalene-2-carboxylate] came in with an EC50 of 466 nM.

In the case of `COC(=O)/C=C/c1cccc(N(CC23CCC(c4nc5ccccc5s4)(CC2)CC3)C(=O)C2CC2)c1` [Example 33, Methyl (E)-3-(3-(N-((4-(benzo[d]thiazol-2-yl)bicyclo[2.2.2]octan-1-yl)methyl)cyclopropanecarboxamido)phenyl)acrylate], the EC50 came out at 414 nM.

`COC(=O)/C=C/c1cccc(N(CC23CCC(c4nc5ccccc5s4)(CC2)CC3)C(=O)C2CCCCC2)c1` [Example 34, Methyl (E)-3-(3-(N-((4-(benzo[d]thiazol-2-yl)bicyclo[2.2.2]octan-1-yl)methyl)cyclohexanecarboxamido)phenyl)acrylate] returned an EC50 of 222 nM.

Take `COc1ccc(C23CCC(CN(C(=O)C4CCCCC4)c4cccc(/C=C/c5nc(C)no5)c4)(CC2)CC3)cc1` [Example 35, (E)-N-((4-(4-methoxyphenyl)bicyclo[2.2.2]octan-1-yl)methyl)-N-(3-(2-(3-methyl-1,2,4-oxadiazol-5-yl)vinyl)phenyl)cyclohexanecarboxamide]: the EC50 came out at 446 nM.

In turn, `COC(=O)/C=C(\C)c1cccc(N(CC23CCC(c4ccc(C5CC5)cc4)(CC2)CC3)C(=O)C2CC2)c1` [Example 36, Methyl (E)-3-(3-(N-((4-(4-cyclopropylphenyl)bicyclo[2.2.2]octan-1-yl)methyl)cyclopropanecarboxamido)phenyl)but-2-enoate] came in with an EC50 of 1780 nM.

Compound `COC(=O)/C=C(\C)c1cccc(N(CC23CCC(c4ccc(C5CC5)cc4)(CC2)CC3)C(=O)C2CCCCC2)c1` [Example 37, Methyl (E)-3-(3-(N-((4-(4-cyclopropylphenyl)bicyclo[2.2.2]octan-1-yl)methyl)cyclohexanecarboxamido)phenyl)but-2-enoate] showed an EC50 of 498 nM.

With `COC(=O)/C=C/c1cccc(N(CC23CCC(c4ccc(C(C)C)cc4)(CC2)CC3)C(=O)C2CCCCC2)c1` [Example 38, Methyl (E)-3-(3-(N-((4-(4-isopropylphenyl)bicyclo[2.2.2]octan-1-yl)methyl)cyclohexanecarboxamido)phenyl)acrylate], a half-maximal response (EC50) required 196 nM. Against the preceding compound, the EC50 is about 2.5-fold lower.

In the case of `COC(=O)/C=C/c1cccc(N(CC23CCC(c4ccc(C(C)C)cc4)(CC2)CC3)C(=O)C2CC2)c1` [Example 39, Methyl (E)-3-(3-(N-((4-(4-isopropylphenyl)bicyclo[2.2.2]octan-1-yl)methyl)cyclopropanecarboxamido)phenyl)acrylate], the EC50 came out at 1430 nM.

Take `COC(=O)C1=Cc2cccc(N(CC34CCC(c5nc(C)no5)(CC3)CC4)C(=O)C3CCCCC3)c2CC1` [Example 40, Methyl 5-(N-((4-(3-methyl-1,2,4-oxadiazol-5-yl)bicyclo[2.2.2]octan-1-yl)methyl)cyclohexanecarboxamido)-3,4-dihydronaphthalene-2-carboxylate]: a half-maximal response (EC50) required 1070 nM.

Compound `COC(=O)/C=C/c1cccc(N(CC23CCC(c4nc(N5CCOCC5)no4)(CC2)CC3)C(=O)C2CCCCC2)c1` [Example 42, Methyl (E)-3-(3-(N-((4-(3-morpholino-1,2,4-oxadiazol-5-yl)bicyclo[2.2.2]octan-1-yl)methyl)cyclohexanecarboxamido)phenyl)acrylate] returned a 50% effective concentration (EC50) of 118 nM.

`COC(=O)/C=C/c1cccc(N(CC23CCC(c4nc(C5CCOCC5)no4)(CC2)CC3)C(=O)C2CCCCC2)c1` [Example 43, Methyl (E)-3-(3-(N-((4-(3-(tetrahydro-2H-pyran-4-yl)-1,2,4-oxadiazol-5-yl)bicyclo[2.2.2]octan-1-yl)methyl)cyclohexanecarboxamido)phenyl)acrylate] returned an EC50 of 107 nM.

For `COC(=O)/C=C/c1cccc(N(CC23CCC(c4noc(C)n4)(CC2)CC3)C(=O)C2CCCCC2)c1` [Example 44, Methyl (E)-3-(3-(N-((4-(5-methyl-1,2,4-oxadiazol-3-yl)bicyclo[2.2.2]octan-1-yl)methyl)cyclohexanecarboxamido)phenyl)acrylate], the EC50 turned out to be 87 nM.

On to `COC(=O)C1=Cc2cccc(N(CC34CCC(c5ccc6c(cnn6C)c5)(CC3)OC4)C(=O)C3CCCCC3)c2CC1` [Example 45, Methyl 5-(N-((1-(1-methyl-1H-indazol-5-yl)-2-oxabicyclo[2.2.2]octan-4-yl)methyl)cyclohexanecarboxamido)-3,4-dihydronaphthalene-2-carboxylate], for which the EC50 is 1150 nM.

Consider `CC(C)(O)C#Cc1cccc(N(CC23CCC(c4nnc(C(C)(C)C)o4)(CC2)CC3)C(=O)C23CC(F)(C2)C3)c1` [Example 48, N-((4-(5-(tert-Butyl)-1,3,4-oxadiazol-2-yl)bicyclo[2.2.2]octan-1-yl)methyl)-3-fluoro-N-(3-(3-hydroxy-3-methylbut-1-yn-1-yl)phenyl)bicyclo[1.1.1]pentane-1-carboxamide], for which the half-maximal effective concentration (EC50) stood at 30 nM.
